Results reported in BindingDB's records for doi:10.7270/Q28G8J4C (Broad Institute, 2009).

What follows are compounds tested against T1, POsterior Segregation (Caenorhabditis elegans, UniProt G5EF15) (assay: inhibitors of POS-1/mex-3 RNA binding, dose response, biochemical, fluorescence polarization (AID 1964)).
T1 sequence (G5EF15 whole entry): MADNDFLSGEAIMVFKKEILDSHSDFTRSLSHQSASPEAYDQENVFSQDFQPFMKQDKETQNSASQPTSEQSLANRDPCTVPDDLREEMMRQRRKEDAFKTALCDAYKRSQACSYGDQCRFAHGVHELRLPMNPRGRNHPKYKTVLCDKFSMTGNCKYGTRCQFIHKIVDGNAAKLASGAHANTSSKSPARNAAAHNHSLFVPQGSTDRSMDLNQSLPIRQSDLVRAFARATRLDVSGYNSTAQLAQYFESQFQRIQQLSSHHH
With N#CC1=C2CCCCC2C(c2cccnc2)C(C#N)(C#N)C1=N (configuration not stated) [2-amino-4-(3-pyridinyl)-4a,5,6,7-tetrahydro-4H-naphthalene-1,3,3-tricarbonitrile] the EC50 was 22.2 µM. Cc1[nH]c2ccccc2c1/C=C1\N=C(c2ccc(F)cc2)OC1=O [2-(4-fluorophenyl)-4-[(2-methyl-1H-indol-3-yl)methylene]-1,3-oxazol-5(4H)-one] was tested, and the EC50 was > 300 µM. CN1CCC2=C(C#N)C(=N)C(C#N)(C#N)C(c3ccncc3)C2C1 (configuration not stated) [6-amino-2-methyl-8-(4-pyridyl)-1,3,8,8a-tetrahydroisoquinoline-5,7,7-tricarbonitrile] was tested, and the EC50 was 52.9 µM. In the case of Cc1cc(-c2ccccc2)nc(N=NCc2ccc(O)cc2O)n1 [SMR000513422], the EC50 is reported as > 300 µM. Compound O=C1c2cccc3cccc(c23)C(=O)C1[N+](=O)[O-] [2-nitro-3-oxidanyl-phenalen-1-one] has an EC50 of 12.6 µM. CCCN1CCC2=C(C#N)C(=N)C(C#N)(C#N)C(c3cc(OC)ccc3OC)C2C1 (configuration not stated) [6-Amino-8-(2,5-dimethoxy-phenyl)-2-propyl-2,3,8,8a-tetrahydro-1H-isoquinoline-5,7,7-tricarbonitrile] showed an EC50 of 27.9 µM. For COc1ccc(C=C2CCCC(C(=O)C(F)(F)F)C2=O)cc1OC (configuration not stated) [(2E,6Z)-2-(3,4-dimethoxybenzylidene)-6-(2,2,2-trifluoro-1-hydroxyethylidene)cyclohexanone], the EC50 was > 300 µM. In the case of CC(C)c1nnc(N2C(=O)C(=O)C(C(=O)c3cccs3)C2c2ccccc2)s1 (configuration not stated) [3-hydroxy-1-(5-isopropyl-1,3,4-thiadiazol-2-yl)-5-phenyl-4-(2-thenoyl)-3-pyrrolin-2-one], the EC50 is reported as 33.9 µM. For CCOC(=O)C1=C(C)OC(=N)C(C#N)C1c1ccc(O)c(OC)c1 (configuration not stated) [6-amino-5-cyano-4-(4-hydroxy-3-methoxyphenyl)-2-methyl-4H-pyran-3-carboxylic acid ethyl ester], the EC50 was > 300 µM. For O=C(N[N-][CH+]c1cc([N+](=O)[O-])ccc1N1CCCC1)c1ccccn1 [MLS000684285], the EC50 was 149 µM. Oc1ccc(C=Nn2c(O)csc2=S)c(O)c1O [3-[[(E)-[2,3-bis(oxidanyl)-4-oxidanylidene-cyclohexa-2,5-dien-1-ylidene]methyl]amino]-2-sulfanylidene-1,3-thiazolidin-4-one] gave an EC50 of 5.17 µM. C=CCOc1cccc(C2C(C(=O)c3ccc(C)o3)C(=O)C(=O)N2c2nccs2)c1 (configuration not stated) [3-(5-methylfuran-2-yl)carbonyl-4-oxidanyl-2-(3-prop-2-enoxyphenyl)-1-(1,3-thiazol-2-yl)-2H-pyrrol-5-one] was tested, and the EC50 was > 300 µM. For Cc1ccc(C(=O)C2C(=O)C(=O)N(Cc3ccco3)C2c2cccc(Br)c2)o1 (configuration not stated) [2-(3-bromophenyl)-1-(2-furanylmethyl)-4-hydroxy-3-[(5-methyl-2-furanyl)-oxomethyl]-2H-pyrrol-5-one], the EC50 was > 300 µM. CC(=O)Nc1ccc(N=CCC(=O)c2ccc(C)o2)cc1 [MLS000089004] was tested, and the EC50 was > 300 µM. For Cc1c(C(=O)O)cccc1-n1c(C)cc(CN=Nc2ccc([N+](=O)[O-])cn2)c1C, the EC50 was > 300 µM. Compound COc1ccc(OC)c(N2C(=O)C(=Cc3ccco3)C(=O)NC2=S)c1 [MLS001197216] has an EC50 of 10.4 µM. O=C(O)c1ccc(NN=CC2=C(N3CCOCC3)C(=Cc3ccccc3)CC2)cc1 [4-[2-[[(3Z)-2-(4-morpholinyl)-3-(phenylmethylene)-1-cyclopentenyl]methylidene]hydrazinyl]benzoic acid] showed an EC50 of 176 µM. In the case of O=C1NC(=O)N(Cc2ccccc2Cl)C(=O)C1=CNc1ccc(F)cc1 [(5E)-1-(2-chlorobenzyl)-5-[(4-fluoroanilino)methylene]barbituric acid], the EC50 is reported as > 300 µM. Oc1ccc2ccccc2c1CN=Nc1nnc(-c2ncc[nH]2)c2ccccc12 [SMR000151639] showed an EC50 of 48.7 µM. COc1ccc(CCN2C(=O)NC(=O)C(=CNNC(=O)c3ccncc3)C2=O)cc1OC [Isonicotinic acid N'-[1-[2-(3,4-dimethoxy-phenyl)-ethyl]-2,4,6-trioxo-tetrahydro-pyrimidin-(5E)-ylidenemethyl]-hydrazide] showed an EC50 of 150 µM. Work on Cc1cc(C=C2C(=O)NC(=O)N(c3ccccc3)C2=O)c(C)n1-c1ccc(F)cc1 [(5Z)-5-[[1-(4-fluorophenyl)-2,5-dimethyl-3-pyrrolyl]methylidene]-1-phenyl-1,3-diazinane-2,4,6-trione] yielded an EC50 of 101 µM. COc1cc(C2C3=C(CC(C)(C)CC3=O)OC(=N)C2C#N)ccc1OCCN1CCOCC1 (configuration not stated) [MLS000779948] was tested, and the EC50 was > 300 µM. Work on N#CC1C(=N)Oc2ccc3ccc(O)cc3c2C1c1ccsc1 (configuration not stated) [3-amino-9-hydroxy-1-(3-thienyl)-1H-benzo[f]chromene-2-carbonitrile] yielded an EC50 of 76.1 µM. Compound Cc1sc2ncnc(N=NC(C)c3ccccn3)c2c1C (configuration not stated) [5,6-dimethyl-N-(1-pyridin-2-ylethylideneamino)thieno[2,3-d]pyrimidin-4-amine] has an EC50 of 23.3 µM. With COc1ccc(OC)c(N2C(=O)NC(=O)C(=Cc3c[nH]c4ccccc34)C2=O)c1 [(5E)-1-(2,5-dimethoxyphenyl)-5-(1H-indol-3-ylmethylene)pyrimidine-2,4,6(1H,3H,5H)-trione] the EC50 was > 300 µM. For N#CC1=C2CCOC[C@@H]2[C@@H](c2ccsc2)C(C#N)(C#N)C1=N [(8R,8aR)-6-amino-8-(3-thienyl)-1,3,8,8a-tetrahydroisochromene-5,7,7-tricarbonitrile], the EC50 was > 300 µM. CCOc1cccc(C2C(C(=O)c3ccc(C)o3)C(=O)C(=O)N2c2nccs2)c1 (configuration not stated) [2-(3-ethoxyphenyl)-3-(5-methylfuran-2-yl)carbonyl-4-oxidanyl-1-(1,3-thiazol-2-yl)-2H-pyrrol-5-one] gave an EC50 of 1.41 µM. Work on O=C1N=c2ccc(Br)cc2=C1NNc1nnn[nH]1 [5-bromanyl-3-[2-(2H-1,2,3,4-tetrazol-5-yl)hydrazinyl]indol-2-one] yielded an EC50 of 14 µM. COc1ccc(C(=O)CC=Nc2ccc([N+](=O)[O-])cc2C)c(OC)c1 [(E)-1-(2,4-dimethoxyphenyl)-3-(2-methyl-4-nitro-anilino)prop-2-en-1-one] was tested, and the EC50 was > 300 µM. For COc1ccc(C(C)N=Nc2nc3ccccc3nc2C)cc1OC (configuration not stated) [MLS001029936], the EC50 was 5.07 µM. For O=C1C=C(NNC(=O)c2sc3ccccc3c2Cl)CCC1 [3-chloranyl-N-[(3-oxidanylidenecyclohexylidene)amino]-1-benzothiophene-2-carboxamide], the EC50 was 22 µM. With CCC(C)N1C(=O)C(=CNNc2nc3c(c(=O)n(C)c(=O)n3C)n2C)C(=O)NC1=S (configuration not stated) [8-[2-[(Z)-(1-butan-2-yl-4,6-dioxo-2-sulfanylidene-1,3-diazinan-5-ylidene)methyl]hydrazinyl]-1,3,7-trimethylpurine-2,6-dione] the EC50 was > 300 µM. With CCCSc1nnc(N2C(=O)C(=O)C(C(=O)c3ccco3)C2c2ccccc2F)s1 (configuration not stated) [2-(2-fluorophenyl)-3-(furan-2-carbonyl)-4-hydroxy-1-(5-propylsulfanyl-1,3,4-thiadiazol-2-yl)-2H-pyrrol-5-one] the EC50 was > 300 µM. Compound COc1ccc(C=C2CCCC(C(=O)C(F)(F)F)C2=O)cc1 (configuration not stated) [SMR000142699] has an EC50 of 36 µM. C=c1c(C(=O)OC)c(O)c(=Cc2ccco2)n1-c1ccccc1 [MLS000780287] was tested, and the EC50 was 99 µM. CSc1nncc(C(C)N=Nc2ccccc2)n1 (configuration not stated) [1-[3-(methylsulfanyl)-1,2,4-triazin-5-yl]ethanone phenylhydrazone] gave an EC50 of 41.3 µM. Compound Cn1cc(C=C2C(=O)NC(=O)N(c3ccccc3)C2=O)c2ccccc21 [SMR000559087] has an EC50 of 5.28 µM.
